# Reference: paper PMC5429603, “Discovery and characterization of verinurad, a potent and specific inhibitor of URAT1 for the treatment of hyperuricemia and gout” (Scientific Reports, 2017)
# Assays:
# human URAT1 h-M25V = target: T1, human URAT1 h-M25V (Homo sapiens, UniProt Q96S37, M25V); assay: URAT1 activity assay, h-M25V; type: cell-based; details: TM1 point mutant, read-out: Verinurad affinity (IC50)
# T1 construct: expressed in transfected cells; host or cells: HEK-293T
# From the text: (§1) Human URAT1 (GenBank BC053348.1, Homo sapiens SLC22A12), rat URAT1 (NCBI NM_001034943.1, Rattus norvegicus Slc22a12) and human OAT4 (NCBI NM_018484.2, Homo sapiens SLC22A11) genes were purchased from Origene Technologies, Inc. and subcloned into pCMV6/neo using NotI. Where indicated, controls transfections used pCMV6/neo. Mutants were produced by site-directed mutagenesis using the QuikChange Lightning Multi Site-Directed Mutagenesis Kit (Agilent Technologies). […] Mutagenic primer sequences are provided in ref. [15] and mutagenic primer sequences for previously unreported mutants shown in Supplementary Table 1. All constructs used in this study were untagged. Human OAT1 was purchased from Fisher Scientific (catalog # MHS1010–7508183 in pSPORT6, NCBI NM_153276.2, Homo sapiens SLC22A6).
# (§2) HEK-293T cells were maintained in DMEM/high glucose/L-glutamine/HEPES supplemented with 1 mM sodium pyruvate (Life Technologies) and 10% FBS (PAA Laboratories) at 37 °C in 5% CO2. […]
# (§3) URAT1 and OAT4 activity assays were performed in assay buffer consisting of 25 mM MES pH 5.5 (from a 1 M MES solution [Sigma] adjusted to pH 5.5 with sodium hydroxide), 125 mM sodium gluconate, 4.8 mM potassium gluconate, 1.2 mM monobasic potassium phosphate, 1.2 mM magnesium sulfate, 1.3 mM calcium gluconate and 5.6 mM glucose. […] Each treatment was measured in triplicate.
# human URAT1-F365Y = target: T2, human URAT1-F365Y (Homo sapiens, UniProt Q96S37, F365Y); assay: URAT1 activity assay, h-F365Y; type: cell-based
# T2 construct: expressed in transfected cells; host or cells: HEK-293T
# T2 sequence (Q96S37 whole entry F365Y): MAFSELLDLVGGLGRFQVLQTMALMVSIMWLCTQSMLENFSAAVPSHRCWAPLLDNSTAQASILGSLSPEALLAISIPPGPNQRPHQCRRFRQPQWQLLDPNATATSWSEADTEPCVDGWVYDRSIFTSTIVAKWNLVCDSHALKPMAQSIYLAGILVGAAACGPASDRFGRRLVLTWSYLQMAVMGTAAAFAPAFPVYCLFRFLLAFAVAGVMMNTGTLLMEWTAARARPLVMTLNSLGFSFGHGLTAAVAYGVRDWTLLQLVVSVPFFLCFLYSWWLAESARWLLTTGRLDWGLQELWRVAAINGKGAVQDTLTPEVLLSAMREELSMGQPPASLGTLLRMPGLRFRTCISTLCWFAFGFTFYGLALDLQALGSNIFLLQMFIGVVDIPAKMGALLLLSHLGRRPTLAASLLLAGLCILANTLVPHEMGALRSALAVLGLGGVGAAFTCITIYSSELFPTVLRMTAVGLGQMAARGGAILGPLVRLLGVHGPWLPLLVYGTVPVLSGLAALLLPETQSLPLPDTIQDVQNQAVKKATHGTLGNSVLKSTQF
# From the text: as §1, §2, §3
# human URAT1 h-M22V = target: T3, human URAT1 h-M22V (Homo sapiens, UniProt Q96S37, M22V); assay: URAT1 activity assay, h-M22V; type: cell-based; details: TM1 point mutant, read-out: Verinurad affinity (IC50)
# T3 construct: expressed in transfected cells; host or cells: HEK-293T
# T3 sequence (Q96S37 whole entry M22V): as the sequence (Q96S37 whole entry F365Y) above, with M22V, Y365F counted along it
# From the text: as §1, §2, §3
# human URAT1 h-S27P = target: T4, human URAT1 h-S27P (Homo sapiens, UniProt Q96S37, S27P); assay: URAT1 activity assay, h-S27P; type: cell-based
# T4 construct: expressed in transfected cells; host or cells: HEK-293T
# T4 sequence (Q96S37 whole entry S27P): as the sequence (Q96S37 whole entry F365Y) above, with S27P, Y365F counted along it
# From the text: as §1, §2, §3
# human URAT1 h-I481M = target: T5, human URAT1 h-I481M (Homo sapiens, UniProt Q96S37, I481M); assay: URAT1 activity assay, h-I481M; type: cell-based
# T5 construct: expressed in transfected cells; host or cells: HEK-293T
# T5 sequence (Q96S37 whole entry I481M): as the sequence (Q96S37 whole entry F365Y) above, with Y365F, I481M counted along it
# From the text: as §1, §2, §3
# human OAT1 = target: T6, human OAT1 (Homo sapiens, UniProt Q4U2R8); assay: OAT1 activity assay (carboxyfluorescein transport); type: cell-based
# T6 construct: host or cells: HEK-293T
# T6 sequence (Q4U2R8 1-550 isoform Q4U2R8-2): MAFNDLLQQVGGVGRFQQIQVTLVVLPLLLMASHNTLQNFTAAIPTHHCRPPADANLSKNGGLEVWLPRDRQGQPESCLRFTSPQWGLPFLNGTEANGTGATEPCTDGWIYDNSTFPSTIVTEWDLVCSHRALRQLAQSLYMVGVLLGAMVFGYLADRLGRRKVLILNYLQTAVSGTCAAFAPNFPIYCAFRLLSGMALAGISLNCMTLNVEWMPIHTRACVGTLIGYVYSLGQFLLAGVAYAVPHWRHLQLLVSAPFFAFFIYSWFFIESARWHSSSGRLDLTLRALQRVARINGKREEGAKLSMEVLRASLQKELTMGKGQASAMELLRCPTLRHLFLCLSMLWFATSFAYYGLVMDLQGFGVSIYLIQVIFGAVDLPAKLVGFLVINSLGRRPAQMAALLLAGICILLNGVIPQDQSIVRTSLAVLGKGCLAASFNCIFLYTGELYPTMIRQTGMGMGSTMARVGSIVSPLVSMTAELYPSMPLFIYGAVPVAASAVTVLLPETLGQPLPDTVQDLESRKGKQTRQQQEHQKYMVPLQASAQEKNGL
# Experimental: DNA (10 μg) was mixed with 30 μl of […] Gold (Boca Scientific) in 2 ml OptiMem (Life Technologies). […] The cells were assayed the following day. OAT1-expressing cells were assayed in a buffer containing 20 mM HEPES (from a 1 M solution at pH 7.3; USB Corporation), 130 mM sodium chloride, 4 mM potassium chloride, 1 mM magnesium sulfate, 1 mM calcium chloride, 1 mM sodium phosphate dibasic and 18 mM glucose. […] Cells were then solubilized in 0.1 N sodium hydroxide prior to fluorimetry measurements. Each treatment was measured in triplicate.
# human URAT1 h-L31V = target: T7, human URAT1 h-L31V (Homo sapiens, UniProt Q96S37, L31V); assay: URAT1 activity assay, h-L31V; type: cell-based; details: TM1 point mutant, read-out: Verinurad affinity (IC50)
# T7 construct: expressed in transfected cells; host or cells: HEK-293T
# T7 sequence (Q96S37 whole entry L31V): as the sequence (Q96S37 whole entry F365Y) above, with L31V, Y365F counted along it
# From the text: as §1, §2, §3
# human URAT1 h-M29L = target: T8, human URAT1 h-M29L (Homo sapiens, UniProt Q96S37, M29L); assay: URAT1 activity assay, h-M29L; type: cell-based; details: TM1 point mutant, read-out: Verinurad affinity (IC50)
# T8 construct: expressed in transfected cells; host or cells: HEK-293T
# T8 sequence (Q96S37 whole entry M29L): as the sequence (Q96S37 whole entry F365Y) above, with M29L, Y365F counted along it
# From the text: as §1, §2, §3
# human URAT1 h-C32T = target: T9, human URAT1 h-C32T (Homo sapiens, UniProt Q96S37, C32T); assay: URAT1 activity assay, h-C32T; type: cell-based
# T9 construct: expressed in transfected cells; host or cells: HEK-293T
# T9 sequence (Q96S37 whole entry C32T): as the sequence (Q96S37 whole entry F365Y) above, with C32T, Y365F counted along it
# From the text: as §1, §2, §3
# human URAT1-F449Y = target: T10, human URAT1-F449Y (Homo sapiens, UniProt Q96S37, F449Y); assay: URAT1 binding assay with 3H-verinurad, h-F449Y membranes
# T10 construct: expressed in transfected cells; host or cells: HEK-293T
# T10 sequence (Q96S37 whole entry F449Y): as the sequence (Q96S37 whole entry F365Y) above, with Y365F, F449Y counted along it
# Experimental: The plates were then subjected to scintillation counting. All samples were assayed in triplicate.
# rat URAT1-Y365F = target: T11, rat URAT1-Y365F (Rattus norvegicus, UniProt Q3ZAV1, Y365F); assay: URAT1 activity assay, r-Y365F; type: cell-based
# T11 construct: expressed in transfected cells; host or cells: HEK-293T
# T11 sequence (Q3ZAV1 1-553 Y365F): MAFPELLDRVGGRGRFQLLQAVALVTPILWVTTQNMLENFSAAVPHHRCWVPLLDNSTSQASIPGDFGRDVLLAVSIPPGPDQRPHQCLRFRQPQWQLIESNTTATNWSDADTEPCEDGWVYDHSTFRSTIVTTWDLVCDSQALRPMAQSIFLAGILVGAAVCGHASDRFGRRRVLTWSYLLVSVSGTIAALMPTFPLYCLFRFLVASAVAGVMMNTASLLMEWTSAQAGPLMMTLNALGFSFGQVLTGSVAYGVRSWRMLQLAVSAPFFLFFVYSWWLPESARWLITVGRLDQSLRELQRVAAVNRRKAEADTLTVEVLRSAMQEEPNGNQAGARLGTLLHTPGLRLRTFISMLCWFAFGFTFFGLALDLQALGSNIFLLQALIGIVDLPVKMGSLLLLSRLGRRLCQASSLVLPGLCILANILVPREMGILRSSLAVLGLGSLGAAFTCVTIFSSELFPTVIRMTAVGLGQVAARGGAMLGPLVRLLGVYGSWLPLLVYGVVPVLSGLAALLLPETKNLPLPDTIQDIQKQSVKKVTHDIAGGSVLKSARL
# From the text: as §1, §2, §3
# human OAT4 = target: T12, human OAT4 (Homo sapiens, UniProt Q9NSA0); assay: OAT4 activity assay (carboxyfluorescein transport); type: cell-based
# T12 construct: host or cells: HEK-293T
# T12 sequence (Q9NSA0 whole entry): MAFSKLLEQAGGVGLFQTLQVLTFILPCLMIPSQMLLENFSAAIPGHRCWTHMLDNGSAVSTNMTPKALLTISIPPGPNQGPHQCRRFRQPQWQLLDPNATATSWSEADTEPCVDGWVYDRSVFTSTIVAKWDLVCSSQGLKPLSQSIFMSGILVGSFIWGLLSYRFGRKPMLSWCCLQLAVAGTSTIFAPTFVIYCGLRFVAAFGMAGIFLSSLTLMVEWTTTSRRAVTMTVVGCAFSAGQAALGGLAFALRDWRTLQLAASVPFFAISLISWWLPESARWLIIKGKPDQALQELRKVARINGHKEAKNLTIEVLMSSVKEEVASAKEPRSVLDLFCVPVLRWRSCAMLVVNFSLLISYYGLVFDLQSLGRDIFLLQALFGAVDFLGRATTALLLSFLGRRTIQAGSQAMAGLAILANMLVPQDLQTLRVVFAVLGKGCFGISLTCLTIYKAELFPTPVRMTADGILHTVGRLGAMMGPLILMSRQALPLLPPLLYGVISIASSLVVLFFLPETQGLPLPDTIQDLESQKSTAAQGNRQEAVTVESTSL
# Experimental: HEK-293T cells were maintained in DMEM/high glucose/L-glutamine/HEPES supplemented with 1 mM sodium pyruvate (Life Technologies) and 10% FBS (PAA Laboratories) at 37 °C in 5% CO2. To express URAT1, OAT4 or OAT1, plasmids were reverse transfected into HEK-293T cells. DNA (10 µg) was mixed with 30 µl of DreamFect Gold (Boca Scientific) in 2 ml OptiMem (Life Technologies). After 20 minutes, 18 ml of media containing 2 × 10^7 cells in suspension was added and mixed, and 200 µl per well were plated onto white clear-bottomed poly-D-lysine coated 96-well plates (BD Biosciences). The cells were assayed the following day.
# as §3, with “glucose. URAT1 inhibitors were serially diluted into assay buffer and added to the cells for 5 minutes prior to addition of substrate. URAT1-expressing cells were incubated with 100 µM ^14C-uric acid for 10 minutes and OAT4-expressing cells were incubated with 20 µM carboxyfluorescein (Life Technologies, Inc.) for 5 minutes.” for “glucose.”
# [1] = TM7 point mutant, read-out: Verinurad affinity (IC50)
# T1 sequence (Q96S37 whole entry M25V): as the sequence (Q96S37 whole entry F365Y) above, with M25V, Y365F counted along it
smiles,measurement,setting,value
"CC(C)(Sc1ccncc1-c1ccc(C#N)c2ccccc12)C(=O)O [Verinurad, 2-((3-(4-cyanonaphthalen-1-yl)pyrindin-4-yl)thio)-2-methylpropanoic acid]",IC50,human URAT1 h-M25V,29 ± 10 nM
same,fold lower affinity relative to human URAT1,human URAT1-F365Y,160 fold
same,IC50,human URAT1-F365Y; [1],4000 ± 1700 nM
same,IC50,human URAT1 h-M22V,29 ± 13 nM
same,fold decrease in affinity,human URAT1 h-S27P; h-S27P vs human URAT1,1.6 fold
same,IC50,"human URAT1 h-S27P; h-S27P, TM1 point mutant, read-out: Verinurad affinity (IC50)",39 ± 9 nM
same,fold reduction in affinity compared to human URAT1,human URAT1 h-I481M,2 fold
same,IC50,"human URAT1 h-I481M; TM11 point mutant, read-out: Verinurad affinity (IC50)",53 ± 10 nM
same,IC50,"human OAT1; human OAT1 in HEK-293T, 20 µM carboxyfluorescein, read-out: IC50, inhibition of transport activity",4600 ± 1400 nM
same,fold lower affinity compared to URAT1,human OAT1; human OAT1 vs human URAT1,approximately 200 fold
same,IC50,human URAT1 h-L31V,31 ± 10 nM
same,IC50,human URAT1 h-M29L,11 ± 2.9 nM
same,fold reduced affinity relative to human URAT1,human URAT1 h-C32T,4 fold
same,IC50,"human URAT1 h-C32T; TM1 point mutant, read-out: Verinurad affinity (IC50)",95 ± 26 nM
same,IC50,"human URAT1-F449Y; h-F449Y membranes, read-out: IC50, inhibition of 3H-verinurad binding to h-F449Y",5.9 nM
same,"fold reduced potency at h-F449Y compared to wild type human URAT1, binding assay",human URAT1-F449Y; h-F449Y vs human URAT1,the same affinity
same,fold higher affinity compared to rat URAT1,rat URAT1-Y365F,14 fold
same,IC50,rat URAT1-Y365F; [1],2900 ± 1300 nM
same,IC50,"human OAT4; human OAT4 in HEK-293T, 20 µM carboxyfluorescein, read-out: IC50, inhibition of transport activity",5900 ± 1400 nM
same,fold lower affinity compared to URAT1,human OAT4; human OAT4 vs human URAT1,approximately 200 fold
